# Measured values reported in patent publication US10105437B2, “Epitopes related to coeliac disease” (BTG International Limited, priority 2004, dated 2018).
# What was measured:
# Type in all cases: cell-based, human
# [1] = test system: PBMC from HLA DQ8+DQ2- CD subjects; test: Interferon gamma ELISPOT, glutenin 20mer library in HLA DQ8 subjects; conditions: tTG-pretreated glutenin 20mers sharing the motif or sequence
# Text: PBMC from two subjects initially challenged were used to screen the first round “Melbourne” wheat gliadin 20mer library. The 20mer sequences identified using PBMC from these two HLA DQ8 CD subjects were dissected further by screening, in five HLA DQ8+DQ2− CD subjects including the two original subjects, a second round library based on reactive 20mers in the 1st round library. The 2nd round library consisted of screening grade overlapping 16mers, and 13mers predicted to correspond to tTG-mediated deamidation products of epitopes with the potential for deamidation of glutamine at position 1 and/or position 9 (consistent with the HLA DQ8 peptide binding motif). In addition, the 1400 glutenin (HMW and LMW) tTG-pretreated 20mers in the “Melbourne” wheat gluten library were also screened in these five subjects.
# Dominant 20mer peptides shared the motifs or had the sequences: PQQQQQQLVQQQ (SEQ ID NO: 1917), QGIFLQPH(LQ)I(AS)QLEV (SEQ ID NO: 1918), QPGQGQQG(HY)Y (SEQ ID NO: 1919), QSRYEAIRAII(FY)S (SEQ ID NO: 1920), RTTTSVPFD (SEQ ID NO: 1921), QPPFWRQQP (SEQ ID NO: 1922), Q(PS)(PS)(FI)(PS) QQQQ (SEQ ID NO: 1923), (QPLR)GYYPTSPQ (SEQ ID NO: 1924) (previously identified HLA DQ8 epitope, van der Wal 2001), QGSYYPGQASPQ (SEQ ID NO: 1925), […] (SEQ ID NO: 1926), and […] (SEQ ID NO: 1927). Glutenin peptides were assessed after pre-treatment with transglutaminase.
# [2] = test system: PBMC from subjects with DQ2+ coeliac disease; test: Interferon gamma ELISPOT, high grade avenin peptides after oats challenge; conditions: for subjects in whom peptide was dominant (>70% maximal response) after oats challenge: day 6 PBMC
# Method: IFNγ ELISpot assays (Mabtech, Sweden) were performed in 96-well plates (MAIP S-45, Millipore) in which each well contained 25 mcl of peptide solution and 100 mcl of PBMC (2-8×10^5/well) in RPMI containing 10% heat inactivated human AB serum. After development and drying, IFNγ ELISpot plates were assessed using the MAIP automated ELISpot plate counter. Data was then analysed according to a novel algorithm (Expectation Maximization: EM) to define and quantify interferon-gamma responses to 9mer sequences contained within the peptide library (see FIG. 3 and below). 9mer peptides were then rationalised according to an algorithm that assumes redundancy in T-cell recognition, the “IterativeCluster” algorithm (see FIG. 4 and below), by allowing groups of amino acids with similar chemical properties at any one position in the 9mer, or for glutamate to replace glutamine at any position (assuming deamidation may have occurred).
# High grade avenin peptides were assessed 3 days after completing oats challenge with pure wheat-free oats, 100 g/d for 3 days (“day 6” PBMC interferon gamma ELISPOT responses). These peptides were designed upon peptides previously defined using the screening grade (“first round”) avenin peptide library and on potential deamidation sites. There were 25 peptides (as 16mers) with purity verified by HPLC as >80%, and sequences confirmed by mass spectroscopy.
# Interferon gamma ELISPOT responses to the high grade avenin peptides following deamidation by tTG were compared in 18 subjects with DQ2+ coeliac disease.
# [3] = test system: PBMC from HLA-DQ2+ subjects; test: Interferon gamma ELISPOT, initial gliadin epitope screening library; conditions: 15 HLA-DQ2+ subjects, deamidated 20mers
# Text: In initial experiments involving 29 HLA-DQ2+ individuals with coeliac disease on long-term gluten free diet, interferon-gamma ELISPOT assays were used to screen a previous Pepset (described in WO 03/104273, which is incorporated herein by reference) initially as pools of peptides and then in 15 subjects as individual peptides with and without deamidation by tTG. This Pepset library consisted of 652 20mer gliadin peptides spanning all unique 12mers contained within all Genbank entries described as wheat gliadins found in September 2001. This Pepset library was designed “manually” from gene-derived protein sequences aligned using ClustalW software (MegAlign) arranged into phylogenetic groupings.
# Approximately 0.6 micromole of each of 652 of the 20mers was provided. Two marker 20mer peptides were included in each set of 96 ([…]—peptide 161 (SEQ ID NO: 1931), and […] (SEQ ID NO: 1932)) and were characterized by reverse phase-HPLC and amino acid sequence analysis. Average purities of these marker peptides were 19% and 50%, respectively. Peptides were initially dissolved in acetonitrile (10%) and Hepes 100 mM to 10 mg/ml. The final concentration of individual peptides incubated with PBMC for the IFNγ ELISpot assays was 20 mcg/ml. These peptides were deamidated by incubation with guinea pig tissue tTG (Sigma T5398) in the ratio 100:32 mcg/ml for two hours at 37° C. […]
# [4] = test system: PBMC from HLA DQ2 coeliac disease subjects; test: Interferon gamma ELISPOT, combitope comparison after wheat, rye or barley challenge; conditions: for median ELISPOT response as percent of response to Combitope: after wheat challenge, n=16 subjects
# Text: The issue of epitope redundancy and the potential utility in diagnostics and therapeutics of peptides designed to combine “unique” dominant epitopes was addressed by comparing interferon gamma ELISPOT responses after wheat (n=16 HLA DQ2 coeliac disease subjects), rye (n=17) or barley (n=13) challenge to the sequences: QLQPFPQPELPYPQPQL (SEQ ID NO: 1903) (“P04724E”), QPEQPFPQPEQPFPWQP (SEQ ID NO: 1904) (“626fEE”), and […] (SEQ ID NO: 1905) (“Combitope”). After rye and barley challenge the sum of the median ELISPOT responses (spot forming units) to P04724E and 626fEE were almost identical (99%, and 102%, respectively) to the response to a similar (optimal) concentration of the Combitope. However, after wheat challenge (n=16 subjects), median P04724E response was 89% of that to Combitope, and median 626fEE responses was 70% of the response to Combitope.
# [5] = after oats challenge, deamidated by tTG, 18 subjects
substance,measurement,setting,value
"(QPLR)GYYPTSPQ: previously identified HLA DQ8 epitope, van der Wal 2001 [reference compound]",dominance among five subjects,[1],dominant in at least one of the five subjects
EQQFGQNIFSGFSVQL (Description of Artificial Sequence: Synthetic gluten peptide),subjects in whom peptide was dominant (>70% maximal response) after oats challenge,"[2]; deamidated by tTG, 18 subjects",11/18
EQYQPEQQPFMQPL (Description of Artificial Sequence: Synthetic gluten peptide),subjects with >40% maximal peptide response,[2]; [5],5/18
"GYYPTSSLQPEQGQQGYYPT (Description of Artificial Sequence: Synthetic gluten peptide) [glutenin 20mer, HLA DQ8]",dominance among five subjects,[1],dominant in at least one of the five subjects
PQPFPPQLPYPQPQLPYPQP (Description of Artificial Sequence: Synthetic gliadin peptide) [Peptide 91],potency rank in library,[3],most potent gliadin 20mer
"PQQQQQQLVQQQ (Description of Artificial Sequence: Synthetic gluten peptide) [motif of dominant glutenin 20mers, HLA DQ8]",dominance among five subjects,[1],dominant in at least one of the five subjects
"QGQQLAQGQQGQQPAQVQQG (Description of Artificial Sequence: Synthetic gluten peptide) [glutenin 20mer, HLA DQ8]",dominance among five subjects,[1],dominant in at least one of the five subjects
"QGSYYPGQASPQ (Description of Artificial Sequence: Synthetic gluten peptide) [motif of dominant glutenin 20mers, HLA DQ8]",dominance among five subjects,[1],dominant in at least one of the five subjects
QIPEQLRCPAIHSVVQ (Description of Artificial Sequence: Synthetic gluten peptide),subjects with positive responses,[2]; [5],3/18
QLQPFPQPELPYPQPQL (Description of Artificial Sequence: Synthetic gluten peptide) [Peptide P04724E],sum of the median ELISPOT responses to P04724E and 626fEE relative to response to Combitope,"[4]; after barley challenge, n=13",102%
same,sum of the median ELISPOT responses to P04724E and 626fEE relative to response to Combitope,"[4]; after rye challenge, n=17",99%
same,median ELISPOT response as percent of response to Combitope,[4],89%
QLRCPAIHSVVQAIIL (Description of Artificial Sequence: Synthetic gluten peptide),subjects in whom peptide was dominant (>70% maximal response) after oats challenge,"[2]; deamidated by tTG, 18 subjects",4/18
QPEQPFPQPEQPFPWQP (Description of Artificial Sequence: Synthetic gluten peptide) [Peptide 626fEE],sum of the median ELISPOT responses to P04724E and 626fEE relative to response to Combitope,"[4]; after barley challenge, n=13",102%
same,sum of the median ELISPOT responses to P04724E and 626fEE relative to response to Combitope,"[4]; after rye challenge, n=17",99%
same,median ELISPOT response as percent of response to Combitope,[4],70%
"QPPFWRQQP (Description of Artificial Sequence: Synthetic gluten peptide) [motif of dominant glutenin 20mers, HLA DQ8]",dominance among five subjects,[1],dominant in at least one of the five subjects
QYQPYPEQEQPILQQQ (Description of Artificial Sequence: Synthetic gluten peptide),subjects in whom peptide was dominant (>70% maximal response) after oats challenge,"[2]; deamidated by tTG, 18 subjects",3/18
"RTTTSVPFD (Description of Artificial Sequence: Synthetic gluten peptide) [motif of dominant glutenin 20mers, HLA DQ8]",dominance among five subjects,[1],dominant in at least one of the five subjects
"SEQYQPYPEQQEPFVQ (Description of Artificial Sequence: Synthetic gluten peptide) [peptide 1490, avenin peptide reported in Arentz-Hansen, PLoS Medicine 2004, reference compound]",subjects with far weaker response,[2]; after oats challenge,5
same,subjects with strong positive response,[2]; after oats challenge,one
